{"source": "PubChem BioAssay (NCI)", "note": "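Following 48 hours of exposure in 96-well plates, responses at five concentrations were used to interpolate endpoints linearly. The concentration for 50% growth inhibition is given as GI50. TGI: total growth inhibition.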", "data": [{"system": "MDA-MB-468 breast", "test": "inhibition of tumour cell growth, NCI panel, 48 h", "units": {"GI50": "nM", "TGI": "µM"}, "values": [{"smiles": "Cc1cc(N2CCOCC2)nc(N(CCCNc2ccnc3cc(Cl)ccc23)Cc2ccco2)n1", "GI50": 2210, "TGI": 7.33}, {"smiles": "CC1(C)NCCC[C@]2(C)[C@H]3CC[C@@H]4[C@H]5[C@H](C(=O)/C=C/c6ccccn6)CC[C@]5(CO)CC[C@@]4(C)[C@]3(C)CC[C@@H]12", "GI50": 2080, "TGI": 4.77}, {"smiles": "COc1ccc2c(c1)C(=O)/C(=C/c1ccc([N+](=O)[O-])o1)O2", "GI50": 818, "TGI": 2.56}, {"smiles": "OCCNc1nc(Nc2ccc(Cl)c(Cl)c2)nc2ccccc12", "GI50": 1830, "TGI": 5.3}, {"smiles": "COc1cc(-c2csc(NC(=O)Nc3ccc(C(F)(F)F)cc3)n2)cc(OC)c1OC", "GI50": 1720, "TGI": 5.71}, {"smiles": "CC(=O)O[C@H]1[C@@H]2OC(=O)C(CSc3ccccc3)[C@@H]2C[C@H]2O[C@]2(C)CC/C=C(\\C)CCC[C@@H]1C", "note": "(some centres undefined)", "GI50": 1460, "TGI": 3.62}, {"smiles": "O=C(O)c1c(=O)cccc2ssc12", "GI50": 2140, "TGI": 4.38}, {"smiles": "CC(CN(C)C)Oc1ccccc1NC1=C(Cl)C(=O)C(Nc2ccccc2OC(C)CN(C)C)=C(Cl)C1=O", "note": "(centres undefined)", "GI50": 163, "TGI": 0.328}, {"smiles": "C/C(O)=C(\\C#N)C(=O)Nc1ccc(C(F)(F)F)cc1", "GI50": 37200, "TGI": "> 100"}, {"smiles": "CCC(=O)Nc1ccc(C)c(-c2ccc(C(=O)NCC3CC3)cc2)c1", "GI50": 14900, "TGI": "> 25"}, {"smiles": "CCOC(=O)C#Cc1c(C(=O)OCC)nnn1Cc1ccc([N+](=O)[O-])cc1", "GI50": 1960, "TGI": 4.4}, {"smiles": "CC([C@H]1CCC2C3CCC4C[C@@H](N)CC[C@]4(C)C3CC[C@@]21C)N(C)C", "note": "(some centres undefined)", "GI50": 1570, "TGI": 4.83}, {"smiles": "NS(=O)(=O)NCCNc1nonc1C(=Nc1ccc(F)c(Br)c1)NO", "GI50": 23500, "TGI": 76.5}, {"smiles": "Cc1ccc(C(=O)/C(=C\\c2ccc([N+](=O)[O-])cc2)S(=O)Cc2ccc(Cl)cc2)cc1", "note": "(centres undefined)", "GI50": 1740, "TGI": 3.44}, {"smiles": "C/C(=C\\c1cc(C(F)(F)F)n(-c2ccc(N)cc2)n1)[C@@H]1C[C@@H]2O[C@]2(C)CCC[C@H](C)[C@H](O)[C@@H](C)C(=O)C(C)(C)[C@@H](O)CC(=O)O1", "GI50": 33.6, "TGI": 0.231}, {"smiles": "O=C1/C(=C/c2ccc(Cl)cc2)CCC/C1=C\\c1ccc(Cl)cc1", "GI50": 3080, "TGI": 9.21}, {"smiles": "COC(=O)c1ccc(NC2=C(Cl)C(=O)C(C)=C(C)C2=O)cc1", "GI50": 1490, "TGI": 3.1}, {"smiles": "C=C(CO)[C@@H]1CC[C@]2(COC3CCCCO3)CC[C@]3(C)[C@H](CC[C@@H]4[C@@]5(C)C=C(C=O)C(=O)C(C)(C)[C@@H]5CC[C@]43C)[C@@H]12", "note": "(some centres undefined)", "GI50": 244, "TGI": 0.665}, {"smiles": "N#C/C(=C\\c1ccc(Br)cc1)n1nnc2cc(Cl)c(Cl)cc21", "GI50": 2150, "TGI": 5.13}, {"smiles": "Cc1ccc(NS(=O)(=O)c2cccc(C#N)c2)c2[nH]cc(C#N)c12", "GI50": 4440, "TGI": 58.2}, {"smiles": "CCCN(CCC)c1ccc(/C=N/NC(=O)c2cccnc2)c(OC)c1", "GI50": 6220, "TGI": 58.9}, {"smiles": "CCn1c(-c2nonc2N)nc2c(C#CC(C)(C)O)ncc(OC[C@H]3CCCNC3)c21", "GI50": 87.2, "TGI": 18.9}]}]}
